Source: patent publication US9156796B2, “Benzoimidazole-carboxylic acid amide derivatives as APJ receptor modulators” (SANOFI, priority 2013, dated 2015)

Molecular target: T1, human apelin receptor (Homo sapiens, UniProt P35414)
T1 construct: expressed in transfected cells
T1 sequence (P35414 1-380): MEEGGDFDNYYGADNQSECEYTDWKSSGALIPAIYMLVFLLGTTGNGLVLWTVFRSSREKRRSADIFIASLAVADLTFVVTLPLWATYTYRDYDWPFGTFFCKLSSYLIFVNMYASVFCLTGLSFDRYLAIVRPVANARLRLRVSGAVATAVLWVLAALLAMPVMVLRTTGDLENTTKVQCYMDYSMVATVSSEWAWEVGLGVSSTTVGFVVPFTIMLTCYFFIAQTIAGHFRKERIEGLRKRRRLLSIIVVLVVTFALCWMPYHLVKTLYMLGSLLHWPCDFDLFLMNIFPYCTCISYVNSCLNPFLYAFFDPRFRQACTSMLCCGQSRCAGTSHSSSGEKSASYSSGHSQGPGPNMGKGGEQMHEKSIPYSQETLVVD
Test: Determination of agonism on the human apelin receptor by a calcium fluorescence assay (FLIPR)
Type: cell-based
Settings: HEK293 cells stably transfected with human apelin receptor and Giaq protein, Fluo-4 calcium fluorescence, read-out: EC50 (APJ agonism)
In short: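 HEK293 cells stably co-expressing human apelin receptor and promiscuous Giaq, loaded 1 h at 37 °C with Fluo-4 (4 μM) in probenecid-containing Hepes buffer, pH 7.4. Compounds, at least 7 concentrations in triplicate, added in FLIPR Tetra; peak calcium fluorescence normalized to 1 μM apelin-13 as 100% to derive EC50.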

Row | EC50 | SMILES
1 | 6670 nM | CCC(CC)n1c(Cc2cccs2)nc2cc(C(=O)N[C@@H](CC(C)C)C(=O)Nc3ccccc3OC)ccc21 [Example 255, 1-(1-Ethyl-propyl)-2-thiophen-2-ylmethyl-1H-benzoimidazole-5-carboxylic acid [(S)-1-(2-methoxy-phenylcarbamoyl)-3-methyl-butyl]-amide]
2 | 5920 nM | CCC(CC)n1c(Cc2cccs2)nc2cc(C(=O)N[C@@H](CC(C)C)C(=O)N(C)Cc3ccccc3OC)ccc21 [Example 256, 1-(1-Ethyl-propyl)-2-thiophen-2-ylmethyl-1H-benzoimidazole-5-carboxylic acid {(S)-1-[(2-methoxy-benzyl)-methyl-carbamoyl]-3-methyl-butyl}-amide]
3 | 425 nM | CCC(CC)n1c(Cc2cccs2)nc2cc(C(=O)N[C@@H](CC(C)C)C(=O)NCC3CCCCN3C)ccc21 (stereo partly drawn) [Example 257, 1-(1-Ethyl-propyl)-2-thiophen-2-ylmethyl-1H-benzoimidazole-5-carboxylic acid {(S)-3-methyl-1-[(1-methyl-piperidin-2-ylmethyl)-carbamoyl]-butyl}-amide]
4 | 1330 nM | CCC(CC)n1c(Cc2cccs2)nc2cc(C(=O)N[C@@H](CC(C)C)C(=O)NCCSC)ccc21 [Example 258, 1-(1-Ethyl-propyl)-2-thiophen-2-ylmethyl-1H-benzoimidazole-5-carboxylic acid [(S)-3-methyl-1-(2-methylsulfanyl-ethylcarbamoyl)-butyl]-amide]
5 | 6650 nM | CCC(CC)n1c(Cc2cccs2)nc2cc(C(=O)N[C@@H](CC(C)C)C(=O)N[C@H]3C[C@@H]3c3ccccc3)ccc21 [Example 259, 1-(1-Ethyl-propyl)-2-thiophen-2-ylmethyl-1H-benzoimidazole-5-carboxylic acid [(S)-3-methyl-1-((1S,2R)-2-phenyl-cyclopropylcarbamoyl)-butyl]-amide]
6 | 170 nM | CCC(CC)n1c(Cc2cccs2)nc2cc(C(=O)N[C@@H](CC(C)C)C(=O)N3CC[C@@H](N(C)C)C3)ccc21 [Example 260, 1-(1-Ethyl-propyl)-2-thiophen-2-ylmethyl-1H-benzoimidazole-5-carboxylic acid [(S)-1-((R)-3-dimethylamino-pyrrolidine-1-carbonyl)-3-methyl-butyl]-amide]
7 | 269 nM | CCC(CC)n1c(Cc2cccs2)nc2cc(C(=O)N[C@@H](CC(C)C)C(=O)NCCCCN(CC)CC)ccc21 [Example 261, 1-(1-Ethyl-propyl)-2-thiophen-2-ylmethyl-1H-benzoimidazole-5-carboxylic acid [(S)-1-(4-diethylamino-butylcarbamoyl)-3 methyl-butyl]-amide]
8 | 4550 nM | CCC(CC)n1c(Cc2cccs2)nc2cc(C(=O)N[C@@H](CC(C)C)C(=O)N[C@@H](C)c3ccccc3F)ccc21 [Example 262, 1-(1-Ethyl-propyl)-2-thiophen-2-ylmethyl-1H-benzoimidazole-5-carboxylic acid {(S)-1-[(S)-1-(2-fluoro-phenyl)-ethylcarbamoyl]-3-methyl-butyl}-amide]
9 | 4300 nM | CCC(CC)n1c(Cc2cccs2)nc2cc(C(=O)N[C@@H](CC(C)C)C(=O)N(C)Cc3ccccc3)ccc21 [Example 263, 1-(1-Ethyl-propyl)-2-thiophen-2-ylmethyl-1H-benzoimidazole-5-carboxylic acid [(S)-1-(benzyl-methyl-carbamoyl)-3-methyl-butyl]-amide]
10 | 3340 nM | CCC(CC)n1c(Cc2cccs2)nc2cc(C(=O)N[C@@H](CC(C)C)C(=O)N(C)CCc3ccccc3)ccc21 [Example 264, 1-(1-Ethyl-propyl)-2-thiophen-2-ylmethyl-1H-benzoimidazole-5-carboxylic acid [(S)-3-methyl-1-(methyl-phenethyl-carbamoyl)-butyl]-amide]
11 | 8660 nM | CCC(CC)n1c(Cc2cccs2)nc2cc(C(=O)N[C@@H](CC(C)C)C(=O)Nc3ccc(OC)cc3)ccc21 [Example 265, 1-(1-Ethyl-propyl)-2-thiophen-2-ylmethyl-1H-benzoimidazole-5-carboxylic acid [(S)-1-(4-methoxy-phenylcarbamoyl)-3-methyl-butyl]-amide]

Second part, the compound before the results:

Row | SMILES | EC50
12 | CCC(CC)n1c(Cc2cccs2)nc2cc(C(=O)N[C@@H](CC(C)C)C(=O)NCCCN3CCCC3)ccc21 [Example 241, 1-(1-Ethyl-propyl)-2-thiophen-2-ylmethyl-1H-benzoimidazole-5-carboxylic acid [(S)-3-methyl-1-(3-pyrrolidin-1-yl-propylcarbamoyl)-butyl]-amide] | 257 nM
13 | CCC(CC)n1c(Cc2cccs2)nc2cc(C(=O)N[C@@H](CC(C)C)C(=O)Nc3ccc(N(CC)CC)cc3)ccc21 [Example 242, 1-(1-Ethyl-propyl)-2-thiophen-2-ylmethyl-1H-benzoimidazole-5-carboxylic acid [(S)-1-(4-diethylamino-phenylcarbamoyl)-3-methyl-butyl]-amide] | 5930 nM
14 | CCC(CC)n1c(Cc2cccs2)nc2cc(C(=O)N[C@@H](CC(C)C)C(=O)NC(C)CN(C)C)ccc21 (stereo partly drawn) [Example 243, 1-(1-Ethyl-propyl)-2-thiophen-2-ylmethyl-1H-benzoimidazole-5-carboxylic acid [(S)-1-(2-dimethylamino-1-methyl-ethylcarbamoyl)-3-methyl-butyl]-amide] | 771 nM
15 | CCC(CC)n1c(Cc2cccs2)nc2cc(C(=O)N[C@@H](CC(C)C)C(=O)NCc3ccc(F)cc3)ccc21 [Example 244, 1-(1-Ethyl-propyl)-2-thiophen-2-ylmethyl-1H-benzoimidazole-5-carboxylic acid [(S)-1-(4-fluoro-benzylcarbamoyl)-3-methyl-butyl]-amide] | 4280 nM
16 | CCC(CC)n1c(Cc2cccs2)nc2cc(C(=O)N[C@@H](CC(C)C)C(=O)NCCCCN(C)C)ccc21 [Example 245, 1-(1-Ethyl-propyl)-2-thiophen-2-ylmethyl-1H-benzoimidazole-5-carboxylic acid [(S)-1-(4-dimethylamino-butylcarbamoyl)-3-methyl-butyl]-amide] | 291 nM
17 | CCC(CC)n1c(Cc2cccs2)nc2cc(C(=O)N[C@@H](CC(C)C)C(=O)NC(C)c3ccc(F)cc3)ccc21 (stereo partly drawn) [Example 246, 1-(1-Ethyl-propyl)-2-thiophen-2-ylmethyl-1H-benzoimidazole-5-carboxylic acid {(S)-1-[1-(4-fluoro-phenyl)-ethylcarbamoyl]-3-methyl-butyl}-amide] | 6840 nM
18 | CCC(CC)n1c(Cc2cccs2)nc2cc(C(=O)N[C@@H](CC(C)C)C(=O)N[C@@H](C)c3ccc(OC)cc3)ccc21 [Example 247, 1-(1-Ethyl-propyl)-2-thiophen-2-ylmethyl-1H-benzoimidazole-5-carboxylic acid {(S)-1-[(S)-1-(4-methoxy-phenyl)-ethylcarbamoyl]-3-methyl-butyl}-amide] | 7220 nM
19 | CCC(CC)n1c(Cc2cccs2)nc2cc(C(=O)N[C@@H](CC(C)C)C(=O)NCCCSC)ccc21 [Example 248, 1-(1-Ethyl-propyl)-2-thiophen-2-ylmethyl-1H-benzoimidazole-5-carboxylic acid [(S)-3-methyl-1-(3-methylsulfanyl-propylcarbamoyl)-butyl]-amide] | 1800 nM
20 | CCC(CC)n1c(Cc2cccs2)nc2cc(C(=O)N[C@@H](CC(C)C)C(=O)NC3CCOCC3)ccc21 [Example 249, 1-(1-Ethyl-propyl)-2-thiophen-2-ylmethyl-1H-benzoimidazole-5-carboxylic acid [(S)-3-methyl-1-(tetrahydro-pyran-4-ylcarbamoyl)-butyl]-amide] | 407 nM
21 | CCC(CC)n1c(Cc2cccs2)nc2cc(C(=O)N[C@@H](CC(C)C)C(=O)NCc3nccs3)ccc21 [Example 250, 1-(1-Ethyl-propyl)-2-thiophen-2-ylmethyl-1H-benzoimidazole-5-carboxylic acid {(S)-3-methyl-1-[(thiazol-2-ylmethyl)-carbamoyl]-butyl}-amide] | 520 nM
22 | CCC(CC)n1c(Cc2cccs2)nc2cc(C(=O)N[C@@H](CC(C)C)C(=O)NCCC(F)(F)F)ccc21 [Example 251, 1-(-Ethyl-propyl)-2-thiophen-2-ylmethyl-1H-benzoimidazole-5-carboxylic acid [(S)-3-methyl-1-(3,3,3-trifluoro-propylcarbamoyl)-butyl]-amide] | 2560 nM
23 | CCC(CC)n1c(Cc2cccs2)nc2cc(C(=O)N[C@@H](CC(C)C)C(=O)NCc3cccc(N(C)C)c3)ccc21 [Example 252, 1-(1-Ethyl-propyl)-2-thiophen-2-ylmethyl-1H-benzoimidazole-5-carboxylic acid [(S)-1-(3-dimethylamino-benzylcarbamoyl)-3-methyl-butyl]-amide] | 6990 nM
24 | CCC(CC)n1c(Cc2cccs2)nc2cc(C(=O)N[C@@H](CC(C)C)C(=O)NCCCCN3CCCC3)ccc21 [Example 253, 1-(1-Ethyl-propyl)-2-thiophen-2-ylmethyl-1H-benzoimidazole-5-carboxylic acid [(S)-3-methyl-1-(4-pyrrolidin-1-yl-butylcarbamoyl)-butyl]-amide] | 242 nM
25 | CCC(CC)n1c(Cc2cccs2)nc2cc(C(=O)N[C@@H](CC(C)C)C(=O)NCc3ncco3)ccc21 [Example 254, 1-(1-Ethyl-propyl)-2-thiophen-2-ylmethyl-1H-benzoimidazole-5-carboxylic acid {(S)-3-methyl-1-[(oxazol-2-ylmethyl)-carbamoyl]-butyl}-amide] | 233 nM
